{"source": "patent US6667163B2", "about": "“Polynucleotide sequences encoding mouse sphingosine-1-phosphate phosphatase” (Merck & Co., Inc., priority 2000, dated 2003)", "molecules": {"B1": {"name": "mSPP1b: murine mSPP1b protein of SEQ ID NO:4, divergent 5′ end, lacks the activity of mSPP1; counterscreen or negative control (protein)", "chain": "MGEELGHCVQMRKSNERGKRFREQRVQRAQGKVSHHTKEEEETRVRQMSQGWEEKEYGYYLFCLGTELGNELFYILFFPFWIWNLDPFVGRRLVIIWVLVMYLGQCTKDIIRWPRPASPPVIKLEVFYNSEYSMPSTHAMSGTAIPIAMFLLTYGRWQYPLIYGLILIPCWSSLVCLSRIYMGMHSILDVIAGFLYTILILIIFYPLVDLIDNFNQTYKYAPLIIIGLHLILGIFSFTLDTWSTSRGDTAEILGSGAGIACGSHAAYTLGLSLEPSLHMLPLAIPPLTVTLFGKAILRIVLGMLLVLFVRDIMKKITIPLACKLSSIPCHDIRQARQHMEVELPYRYITYGMVGFSITFLVPYVFSFIGIS"}, "B2": {"name": "mSPP1: murine sphingosine-1-phosphate phosphatase, recombinant enzyme having the amino acid sequence of SEQ ID NO:3 (protein)", "chain": "MSLGQRLALLASRLQEPQRVASFQRLCGVEVPLSSPAADEDAETEVRGAPGEPRRRGRQPGAEDSPAKADCCGAPNGVRNGLAAEPGPTGPRRAGSQRRNSLTGEEGELVKVSNLPLYYLFCLGTELGNELFYILFFPFWIWNLDPFVGRRLVIIWVLVMYLGQCTKDIIRWPRPASPPVIKLEVFYNSEYSMPSTHAMSGTAIPIAMFLLTYGRWQYPLIYGLILIPCWSSLVCLSRIYMGMHSILDVIAGFLYTILILIIFYPLVDLIDNFNQTYKYAPLIIIGLHLILGIFSFTLDTWSTSRGDTAEILGSGAGIACGSHAAYTLGLSLEPSLHMLPLAIPPLTVTLFGKAILRIVLGMLLVLFVRDIMKKITIPLACKLSSIPCHDIRQARQHMEVELPYRYITYGMVGFSITFLVPYVFSFIGIS"}}, "key": {"mSPP1": {"molecular_target": "T1, mSPP1 (Mus musculus, UniProt Q9JI99)", "T1 construct": "expressed in transfected cells; host or cells: HEK293 (human embryonic kidney), transient CaCl2 transfection with mSPP1-pcDNA3.1; membrane pellet (40,000 x g)", "T1 sequence (Q9JI99 1-430)": "B2 chain", "assay": "Substrate degradation by membrane fractions from HEK293 cells transfected with mSPP1", "assay_type": "biochemical, murine"}, "[1]": {"test_system": "Yeast (lbp1Δ::LEU2 sur2-2)", "assay": "Australifungin sensitivity, microtiter broth dilution assay in transformed yeast", "assay_type": "cell-based", "method": "Yeast cells defective in LBP1 shunt sphingolipid metabolites into phosphatidylethanolamine and phosphatidylcholine synthesis and become extremely sensitive to ceramide synthase inhibition by the antifungal agent, australifungin. To test whether the mouse SPP phosphatases can substitute for the function of LBP1, mSPP1pRS414-ADH, mSPP1bpRS414-ADH, or control vector (pRS414-ADH) were transformed into lbp1Δ::LEU2sur2-2 and sensitivity to australifungin was determined using a microtiter broth dilution assay. Transformants were incubated overnight in Synthetic Complete-Tryptophan (SC-TRP) Yeast Nitrogen Base medium (DIFCO) containing 2% glucose and 0.078% tryptophan-free supplement mixture (BIO101) at […]. Cells were inoculated at an OD600=0.001 (˜1×10^4 yeast cells/ml), and serial 2-fold dilutions of australifungin were made from 5 μg/ml. Growth after 48 h at 30° C. was measured by absorbance readings with a Rainbow spectrometer (TECAN)."}, "[2]": {"test_system": "[3H]dihydrosphingosine-1-phosphate", "assay": "Dihydrosphingosine-1-phosphate phosphohydrolase activity in microsomal membranes of transformed yeast", "assay_type": "biochemical", "conditions": "yeast lbp1Δ::LEU2 sur2-2 expressing the protein, compared to the vector control", "excerpt": "To test whether mSPP1 and mSPP1b encoded SPP phosphatases with properties similar to yeast Lbp1p, the mouse genes were subcloned into pRS414-ADH for expression of the genes in LBP1 mutants under the control of a strong, constitutive yeast promoter (ADH). The resulting plasmids were mSPP1pRS414-ADH and mSPP1bpRS414-ADH. Yeast (lbp1Δ::LEU2 sur2-2) were transformed with mSPP1pRS414-ADH, mSPP1bpRS414-ADH, or control vector (pRS414-ADH) using the lithium acetate/polyethylene glycol procedure and plated onto Synthetic Complete-Tryptophan (SC-TRP) Yeast Nitrogen Base medium (DIFCO) containing 1.5% agar, 2% glucose and 0.078% tryptophan-free supplement mixture (BIO101). Transformants were inoculated into SC-TRP media and incubated overnight at 30° C. to an OD600 of 1.0. […]\nMicrosomal membranes were collected by ultracentrifugation (100,000×g, 1 hour) and suspended in disruption buffer containing 20% glycerol. Dihydrosphingosine-1-phosphate phosphohydrolase activity was measured in 200 μl containing 50 mM KPO4 pH 7.2, 0.02% tergitol (NP-40), 2 μM [^3H]dihydrosphingosine-1-phosphate (40,000 cpm), 2 mM semicarbazide, and 0.3 to 5 μg of membrane protein. […] One ml of chloroform:methanol (3:2) was added and 50 μl of the chloroform layer was counted by liquid scintillation."}, "NIH 3T3 fibroblasts": {"test_system": "NIH 3T3 fibroblasts", "assay": "Enforced expression of mSPP1 in NIH 3T3 fibroblasts: survival and apoptosis", "assay_type": "cell-based", "conditions": "enforced expression in NIH 3T3 fibroblasts"}, "[3]": {"test_system": "[3H]dihydrosphingosine-1-phosphate", "assay": "Dihydrosphingosine phosphate phosphohydrolase activity in membranes of transfected HEK293 cells", "assay_type": "biochemical, Human", "conditions": "compared to vector transfected cells or mSPP1b transfected cells", "method": "Microsomal membranes were collected by ultracentrifugation (100,000×g, 1 hour) and suspended in disruption buffer containing 20% glycerol. Dihydrosphingosine-1-phosphate phosphohydrolase activity was measured in 200 μl containing 50 mM KPO4 pH 7.2, 0.02% tergitol (NP-40), 2 μM [^3H]dihydrosphingosine-1-phosphate (40,000 cpm), 2 mM semicarbazide, and 0.3 to 5 μg of membrane protein. Following a 45 min incubation at 37° C., the assay was terminated with 200 μl 7 M NH4OH. One ml of chloroform:methanol (3:2) was added and 50 μl of the chloroform layer was counted by liquid scintillation.\nTransfection-quality DNA was prepared for plasmids mSPP1-pcDNA3.1 and mSPP1b-pcDNA3.1 using endotoxin-free QIAGEN Maxi protocol (QIAGEN, Chatsworth, Calif.). Human embryonic kidney (HEK293) cells were maintained in high glucose Dulbecco's modified Eagle's medium (DMEM) containing 100 U/ml penicillin, 100 μg/ml streptomycin and 2 mM L-glutamine supplemented with 10% fetal bovine serum. Cells (1×10^6) were transfected with 20 μg of plasmid DNA by the CaCl2 procedure using a kit from SPECIALTY MEDIA (Lavallette, N.J.). Cells were harvested 48 hours after transfection with enzyme-free dissociation solution (SPECIALTY MEDIA, Lavallette, N.J.). […] Dihydrosphingosine phosphate phosphohydrolase activity was measured as described in Example 4."}}, "data": [{"molecule": "ceramide-1-phosphate", "values": [{"measurement": "degradation of substrate by mSPP1 membrane fractions", "setting": "mSPP1", "result": "not"}]}, {"molecule": "CCCCCC[C@@H](C)C1=C(O)C(=O)[C@@H]2[C@H](O)[C@H](C)C[C@H](O)[C@H]2[C@]1(C)C(=O)/C=C\\O", "note": "[australifungin]", "values": [{"measurement": "increase in the MIC90 of australifungin", "setting": "[1]; lbp1Δsur2-2 mutant expressing mSPP1, compared to vector transformed mutants, growth after 48 h at 30° C.", "result": 64, "unit": "fold"}, {"measurement": "australifungin sensitivity", "setting": "[1]; lbp1Δsur2-2 mutant expressing mSPP1b", "result": "did not alter"}]}, {"molecule": "phosphatidic acid", "values": [{"measurement": "degradation of substrate by mSPP1 membrane fractions", "setting": "mSPP1", "result": "not"}]}, {"molecule": "CCCCCCCCCCCCC/C=C/[C@@H](O)[C@@H](N)COP(=O)(O)O", "note": "[SPP, Sphingosine-1-phosphate]", "values": [{"measurement": "degradation of substrate by mSPP1 membrane fractions", "setting": "mSPP1", "result": "markedly degraded"}]}, {"molecule": "lysophosphatidic acid", "values": [{"measurement": "degradation of substrate by mSPP1 membrane fractions", "setting": "mSPP1", "result": "not"}]}, {"molecule": "B1", "values": [{"measurement": "increase in membrane dihydrosphingosine-1-phosphate phosphohydrolase activity", "setting": "[2]", "result": "same level of phosphohydrolase activity as control"}]}, {"molecule": "B2", "values": [{"measurement": "increase in membrane dihydrosphingosine-1-phosphate phosphohydrolase activity", "setting": "[2]", "result": "3 to 4", "unit": "fold"}, {"measurement": "apoptosis", "setting": "NIH 3T3 fibroblasts", "result": "induced the characteristic traits of apoptosis"}, {"measurement": "cell survival", "setting": "NIH 3T3 fibroblasts", "result": "markedly decreased survival"}, {"measurement": "increase in dihydrosphingosine phosphate phosphohydrolase activity", "setting": "[3]", "result": "4 to 5", "unit": "fold"}]}]}
